Test [1] concerns the target T1, full-length MALT1 protein His-MALT1(1-824) (Homo sapiens, UniProt Q9UDY8).
T1 construct: full-length MALT1 protein His-MALT1(1-824); His (N); made in house; host or cells: baculovirus-infected insect cells
T1 sequence (Q9UDY8 1-824): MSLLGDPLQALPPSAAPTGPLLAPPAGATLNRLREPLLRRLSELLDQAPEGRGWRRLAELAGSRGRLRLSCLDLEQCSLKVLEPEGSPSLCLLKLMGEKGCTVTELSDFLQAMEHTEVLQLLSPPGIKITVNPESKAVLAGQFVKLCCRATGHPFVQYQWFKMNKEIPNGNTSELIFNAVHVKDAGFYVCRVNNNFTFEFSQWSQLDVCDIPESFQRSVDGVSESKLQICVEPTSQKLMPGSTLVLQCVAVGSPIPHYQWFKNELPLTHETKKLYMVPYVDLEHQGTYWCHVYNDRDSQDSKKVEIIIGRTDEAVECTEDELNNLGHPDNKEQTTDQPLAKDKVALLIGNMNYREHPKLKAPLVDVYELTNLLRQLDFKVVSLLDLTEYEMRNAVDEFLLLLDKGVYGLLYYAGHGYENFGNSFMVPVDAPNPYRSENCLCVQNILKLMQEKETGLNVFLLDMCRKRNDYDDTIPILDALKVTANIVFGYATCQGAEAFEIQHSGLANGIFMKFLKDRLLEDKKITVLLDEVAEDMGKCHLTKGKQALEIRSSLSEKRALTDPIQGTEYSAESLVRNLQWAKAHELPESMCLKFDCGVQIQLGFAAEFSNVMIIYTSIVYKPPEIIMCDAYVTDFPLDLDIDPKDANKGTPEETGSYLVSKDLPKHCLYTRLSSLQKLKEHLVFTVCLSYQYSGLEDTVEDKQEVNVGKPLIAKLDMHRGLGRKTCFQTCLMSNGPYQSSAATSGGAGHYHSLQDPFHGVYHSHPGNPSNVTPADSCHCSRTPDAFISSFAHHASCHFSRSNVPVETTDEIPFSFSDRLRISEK
The test can be described thus: MALT1 protease assay (Ac-LRSR-AMC tetrapeptide substrate, fluorescence). It counts as biochemical. To be noted: 1 nM MALT1, 25 μM Ac-LRSR-AMC, 2 h pre-incubation, 8 hr incubation at RT. The essentials: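 Full-length His-MALT1(1-824) from baculovirus-infected insect cells (1 nM) was pre-incubated 2 h at RT with compounds (0.1% DMSO), then 25 μM Ac-LRSR-AMC added in 50 mM Tris pH 7.5, 600 mM sodium citrate, 1 mM DTT, 1 mM EDTA, 0.05% BSA. Fluorescence (ex 355/em 460 nm) read after 8 h at RT; IC50 by non-linear regression of % remaining activity.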

The subject of test [2] is IL10 secretion, OCI-LY10 cells. As to the kind of experiment: Human IL10 secretion assay in OCI-LY10 cells (MSD). It counts as cell-based. To be noted: 24 h incubation, relative to DMSO set as 100%, read-out: IL-10 Secretion IC50. How it is done:
IL10 is one of the cytokines that are regulated via activation of NF-kB signaling. For example, in ABC-DLBCL cell lines, the activated NF-kB signaling leads to increased IL10 secretion. Inhibition of NF-kB signaling has been shown leading to decreased IL10 secretion.
OCI-LY10 cells were seeded in IMEM supplemented with 20% fetal bovine serum at 4.8×10^5 cells per 160 μL per well in 96-well V-bottom cell culture plates (coming, 3894), treated with 120 nL of 3-fold serial compound dilutions, starting at 4 mM. The final vehicle concentration was 0.075% DMSO in all wells. After a 24 h incubation, human IL-10 pre-coated plates (Meso Scale Discovery) were washed 3 times with PBST, and 50 μL culture medium was aspirated into the MSD plate and incubated at 4° C. overnight. The supernatant was then discarded, and the wells were washed 3 times with PBST. SULFO-TAG Anti-human IL-10 Antibody (50×) was diluted 50-fold according to the Meso Scale Protocol, then 25 μL of SULFO-TAG Anti-human IL-10 Antibody (1×) was added. After 2 h of incubation at RT, the supernatant was discarded, and the well was washed 3 times with PBST. 2× read buffer was added and the signal was read on an MSD Sector S600. The effect of a particular compound on IL10 secretion is shown relative to the effect of DMSO; set as 100%. IC50 values (nM) were determined using 4-parametric curve-fitting.

In the case of `Cn1cc([C@@]2(C)C[C@H](C(=O)Nc3cnc(-n4nccn4)c(Cl)c3)c3cnc4cc(F)nn4c32)cn1` (single isomer, unassigned) [Example 1], the concentration for half-maximal inhibition (IC50) (commonly the concentration at which inhibition is half-maximal) in test [1] was < 10 nM; in test [2] it was 100 to 1000 nM.
`Cn1cc([C@@]2(C)C[C@H](C(=O)Nc3cnc(-n4nccn4)c(C(F)(F)F)c3)c3cnc4cc(F)nn4c32)cn1` (single isomer, unassigned) [Example 5]: the figures for the IC50 in test [1] and in test [2] were < 10 nM and 10 to 100 nM, respectively.
In the same order, the values of `Cn1cc([C@@]2(C)C[C@H](C(=O)Nc3cnc(-n4nccn4)c(Cl)c3)c3cnc4cc(Cl)nn4c32)cn1` (single isomer, unassigned) [Example 8] are < 10 nM and 10 to 100 nM.
For `Cn1cc([C@@]2(C)C[C@H](C(=O)Nc3cnc(-n4nccn4)c(Cl)c3)c3cnc4c(F)c(F)nn4c32)cn1` (single isomer, unassigned) [Example 12], the IC50 in test [1] was < 10 nM; in test [2] it was 100 to 1000 nM.
As for `CCn1cc([C@@]2(C)C[C@H](C(=O)Nc3cnc(-n4nccn4)c(Cl)c3)c3cnc4cc(F)nn4c32)cn1` (single isomer, unassigned) [Example 20], the figures for the IC50 in test [1] and in test [2] were < 10 nM and 10 to 100 nM, respectively.
Regarding `C[C@]1(c2cnn(C(F)F)c2)C[C@H](C(=O)Nc2cnc(-n3nccn3)c(Cl)c2)c2cnc3cc(F)nn3c21` (single isomer, unassigned) [Example 24], the IC50 in test [1] is < 10 nM; in test [2], 10 to 100 nM.
Regarding `C[C@]1(c2cnn(C3CC3)c2)C[C@H](C(=O)Nc2cnc(-n3nccn3)c(Cl)c2)c2cnc3cc(F)nn3c21` (single isomer, unassigned) [Example 28], the IC50 in test [1] was < 10 nM; in test [2], 10 to 100 nM.
Turning to `Cn1ccc([C@@]2(C)C[C@H](C(=O)Nc3cnc(-n4nccn4)c(Cl)c3)c3cnc4cc(F)nn4c32)n1` (single isomer, unassigned) [Example 32], the IC50 is < 10 nM in test [1] and 100 to 1000 nM in test [2].
In the case of `Cn1cc([C@@]2(C)C[C@H](C(=O)Nc3cnc(OC(F)F)c(C#N)c3)c3cnc4cc(F)nn4c32)cn1` (single isomer, unassigned) [Example 40], the IC50 in test [1] is < 10 nM; in test [2], 10 to 100 nM.
In the same order, the values of `Cn1ccc([C@@]2(C)C[C@H](C(=O)Nc3cnc(OC(F)F)c(C#N)c3)c3cnc4cc(F)nn4c32)n1` (single isomer, unassigned) [Example 68] are < 10 nM and 100 to 1000 nM.
In the same order, the values of `C[C@]1(c2ccn(C(F)F)n2)C[C@H](C(=O)Nc2cnc(-n3nccn3)c(Cl)c2)c2cnc3cc(F)nn3c21` (single isomer, unassigned) [Example 88] are < 10 nM and 10 to 100 nM.
In the same order, the values of `C[C@]1(c2cnn(C(F)F)c2)C[C@H](C(=O)Nc2cnc(OC(F)F)c(C#N)c2)c2cnc3cc(F)nn3c21` (single isomer, unassigned) [Example 92] are < 10 nM and 100 to 1000 nM.
For `C[C@]1(c2ccn(C(F)F)n2)C[C@H](C(=O)Nc2cnc(OC(F)F)c(C#N)c2)c2cnc3cc(F)nn3c21` (single isomer, unassigned) [Example 110], the half-maximal inhibitory concentration (IC50) in test [1] is < 10 nM; in test [2], 10 to 100 nM.
The matching figures for `CC1(c2ccn(C(F)F)n2)CC(C(=O)Nc2cnc(-c3ncc(F)cn3)c(C(F)(F)F)c2)c2cnc3cc(F)nn3c21` (single isomer, unassigned) [Example 116]: < 10 nM and 100 to 1000 nM.
Turning to `CC(F)(F)n1cc([C@@]2(C)C[C@H](C(=O)Nc3cnc(-n4nccn4)c(Cl)c3)c3cnc4cc(F)nn4c32)cn1` (single isomer, unassigned) [Example 120], the figures for the IC50 in test [1] and in test [2] were < 10 nM and 10 to 100 nM, respectively.
In the same order, the values of `C[C@]1(c2ccn(C(F)F)n2)C[C@H](C(=O)Nc2cnc(-n3nccn3)c(C(F)(F)F)c2)c2cnc3cc(F)nn3c21` (single isomer, unassigned) [Example 124] are < 10 nM and 10 to 100 nM.
As to `C[C@]1(c2ccn(C(F)F)n2)C[C@H](C(=O)Nc2cnc(-c3ncccn3)c(C(F)(F)F)c2)c2cnc3cc(F)nn3c21` (single isomer, unassigned) [Example 136], the 50% inhibitory concentration (IC50) in test [1] is < 10 nM; in test [2] it was 10 to 100 nM.
In the case of `C[C@]1(c2ccn(C(F)F)n2)C[C@H](C(=O)Nc2cnc(-c3ncccn3)c(Cl)c2)c2cnc3cc(F)nn3c21` (single isomer, unassigned) [Example 140], the concentration for half-maximal inhibition (IC50) was < 10 nM in test [1] and 10 to 100 nM in test [2].
With `Cn1ccc([C@@]2(C)C[C@H](C(=O)Nc3cnc(-n4nccn4)c(C(F)(F)F)c3)c3cnc4cc(F)nn4c32)n1` (single isomer, unassigned) [Example 144], the IC50 in test [1] was < 10 nM; in test [2] it was 100 to 1000 nM.
Take `C[C@]1(c2cnn(C(F)F)c2)C[C@H](C(=O)Nc2cnc(-c3ncccn3)c(C(F)(F)F)c2)c2cnc3cc(F)nn3c21` (single isomer, unassigned) [Example 148]: the IC50 is 10 to 100 nM in test [1] and 100 to 1000 nM in test [2].
For `C[C@]1(c2cnn(C(F)F)c2)C[C@H](C(=O)Nc2cnc(-c3ncc(F)cn3)c(C(F)(F)F)c2)c2cnc3cc(F)nn3c21` [Example 132, (6S,8R)-8-(1-(difluoromethyl)-1H-pyrazol-4-yl)-2-fluoro-N-(6-(5-fluoropyrimidin-2-yl)-5-(trifluoromethyl)pyridin-3-yl)-8-methyl-7,8-dihydro-6H-cyclopenta[e]pyrazolo[1,5-a]pyrimidine-6-carboxamide], the 50% inhibitory concentration (IC50) in test [1] fell in the range of 10 to 100 nM.
Consider `C[C@]1(c2cnn(C(F)F)c2)C[C@H](C(=O)Nc2cnc(-c3ncc(F)cn3)c(Cl)c2)c2cnc3cc(F)nn3c21` [Example 134, (6S,8R)—N-(5-chloro-6-(5-fluoropyrimidin-2-yl)pyridin-3-yl)-8-(1-(difluoromethyl)-1H-pyrazol-4-yl)-2-fluoro-8-methyl-7,8-dihydro-6H-cyclopenta[e]pyrazolo[1,5-a]pyrimidine-6-carboxamide], for which the IC50 in test [1] was in the range of 10 to 100 nM.

Values taken from patent US20260049085A1, “CYCLIC COMPOUNDS AND METHODS OF USING SAME” (SCHRÖDINGER, INC., priority 2022, published 2026).
